Data set [1] has as its target T1, Wee-1 kinase (Homo sapiens, UniProt P30291).
T1 construct: purchased Invitrogen PV3817
In words: Measurement of Wee-1 kinase activity (ADP-Glo luminescent kit). It counts as biochemical. A digest of the protocol: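 Activated Wee-1 was pre-incubated 30 min at RT with compound in 40 mM Tris-HCl, 20 mM MgCl2, 0.1 mg/mL BSA and 2 mM DTT. The reaction was started with an aliquot of 2.0 μg/mL poly(Lys,Tyr 4:1) plus 30 μM ATP and run 1 h at RT. ADP-Glo luminescence gave IC50 by non-linear fit.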
(In general: ADP-Glo turns the ADP formed in a reaction into a luminescent signal.)

Data set [2] relates to phospho-cdc2 (Tyr15) in HT-29 cells. In words: Effect on Cdc2 phosphorylation at Tyr15, Cell-Based ELISA Base Kit (Method 3). To be noted: Homo sapiens, HT-29, 8 h, eight hours incubation, normalized to total cdc2, read-out: HT29 pCDC2 method 3. On the procedure: Method 3: Determining the Effect of Compounds on the Cdc2 phosphorylation at Tyr15, using a Cell-Based ELISA Base Kit (R&D Systems, KCB001)
The colorectal cancer cell line, HT-29 was purchased from the ATCC and maintained in McCoy's 5 A medium (Gibco®, Life technologies) supplemented with 10% Foetal Calf Serum (FCS).
The cells were trypsinised and counted, 100 μL of 8000 cells was seeded into each well of a clear-bottom black 96-well microplate and incubated overnight to allow adherence to the surface, at 37° C. and 5% CO2 in a cell culture incubator.
Test compounds were formulated in DMSO and diluted in cell culture medium supplemented with FCS. Grow medium was removed from cells and medium containing compounds dilutions was added to each well. The plate was returned to the incubator for an additional eight hours of incubation at 37° C. and 5% CO2.
Post incubation cells were fixed by replacing the compounds supplemented medium with 100 μL of 4% formaldehyde in 1× phosphate buffered saline (PBS), for 20 minutes at room temperature. Formaldehyde solution was removed and cells were washed three times with PBS. The Cell-Based ELISA assay (R&D Systems) was carried out immediately after cell fixation or the plate was sealed and fixed cells were stored in PBS at 4° C. until required (no more than two weeks).
To continue the assay, PBS was removed and cells were washed 3 times for 5 minutes with 200 μL of 1× wash buffer. Each wash step was carried out with gentle shaking. Following washes, 100 μL of 0.6% H2O2 in 1× wash buffer (quenching buffer) was added, plate was sealed and incubated for 20 minutes at room temperature. Post incubation cells were washes 3 times for 5 minutes with 200 μL of 1× wash buffer, with gentle shaking. 100 μL of blocking buffer was added to each well, the plate was re-sealed and incubated at room temperature for 1 h.
After blocking, cells were washed as described above. A primary antibody mixture was prepared by mixing the two primary antibodies, a rabbit monoclonal antibody for phospho-cdc2 (Tyr15) (Cell Signaling, #4539) and mouse monoclonal antibody for total cdc2 p34 (Santa Cruz Biotechnology, sc-54), diluted 1:25 and 1:50 in blocking buffer, respectively. 60 μL of primary antibody mixture was added to each well, the plate was sealed and incubated overnight at 4° C.
The primary antibodies were removed and cells were washed as previously described. 100 μL of secondary antibody mixture, containing horseradish-peroxidase (HRP)-conjugated goat anti-rabbit IgG and alkaline phosphatase (AP)-conjugated goat anti-mouse IgG, diluted 1:100 in blocking buffer, was added to each test well. The plate was re-sealed and incubated for 2 hours at room temperature.
The secondary antibodies were removed and cells washed 2 times with wash buffer, followed by 2 washes with PBS. Each wash step was carried out for 5 minutes with gentle shaking. PBS was removed and 75 μL of fluorogenic substrate for HRP (substrate F1) added to each well. The plate was sealed and incubated for 1 h at room temperature, in the dark. 75 μL of fluorogenic substrate for AP (substrate F2) was added directly to each well, plate re-sealed and incubated for additional 40 minutes at room temperature, protected from direct light.
Following incubation fluorescence from each well was read at 600 nm (signal from substrate 1, phosphorylated protein) and then at 450 nm (signal from substrate 2, total protein).
The percentage of phospho-cdc2 was calculated compared to DMSO control, normalized to the total cdc2 and plotted versus the concentration of inhibitor, using GraphPad Prism. Data was fitted using a non-linear regression analysis and EC50 values generated.

Data set [3] in a line: CLint estimates using human liver microsomes (Method 4). It counts as in vitro ADME. To be noted: pH 7.4, 1 μM compound, read-out: Mics - CLint (HLM CLint). The method in brief:
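Compound at 1 μM (0.1% DMSO) incubated with human liver microsomes (0.5 mg protein/mL) in 0.1 M phosphate pH 7.4 at 37 °C, started with 1 mM NADPH. Samples taken 2–50 min, quenched in methanol, measured by LC/MS/MS (MRM). Half-life and CLint derived from the slope of ln peak area versus time.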

T1 sequence (P30291 whole entry): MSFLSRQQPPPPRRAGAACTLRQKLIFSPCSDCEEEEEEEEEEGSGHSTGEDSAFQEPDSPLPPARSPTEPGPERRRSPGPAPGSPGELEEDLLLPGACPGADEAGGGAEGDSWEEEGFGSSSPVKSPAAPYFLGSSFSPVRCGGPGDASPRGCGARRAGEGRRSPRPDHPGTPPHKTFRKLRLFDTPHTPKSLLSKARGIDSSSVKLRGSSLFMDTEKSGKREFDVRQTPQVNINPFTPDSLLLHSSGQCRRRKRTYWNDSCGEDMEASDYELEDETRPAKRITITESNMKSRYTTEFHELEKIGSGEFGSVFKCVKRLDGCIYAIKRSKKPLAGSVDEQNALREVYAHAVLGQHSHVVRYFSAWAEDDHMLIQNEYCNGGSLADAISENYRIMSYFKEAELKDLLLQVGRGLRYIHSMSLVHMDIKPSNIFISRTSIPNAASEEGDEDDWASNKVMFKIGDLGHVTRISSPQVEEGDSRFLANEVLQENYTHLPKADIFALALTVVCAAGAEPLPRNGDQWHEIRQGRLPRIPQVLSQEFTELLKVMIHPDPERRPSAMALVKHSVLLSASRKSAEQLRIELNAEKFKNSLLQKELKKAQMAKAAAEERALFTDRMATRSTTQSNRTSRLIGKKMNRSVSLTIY

Regarding `CNCc1cc(Nc2ncc3c(n2)N(C)CN(c2c(Cl)cccc2Cl)C3=O)ccc1N(C)C` [Example 153, 3-(2,6-dichlorophenyl)-7-((4-(dimethylamino)-3-((methylamino)methyl)phenyl)amino)-1-methyl-2,3-dihydropyrimido[4,5-d]pyrimidin-4(1H)-one], the concentration for half-maximal inhibition (IC50) (commonly the concentration that gives 50% inhibition) in data set [1] is at most 10 nM. The EC50 in data set [2] was in the range of 100 to 1000 nM. In data set [3], the microsomal CLint at 1 μM was 15 to 50 µL/min/mg.
In the same order, the values of `CNCc1cc(Nc2ncc3c(n2)N(C)CN(c2c(Cl)cccc2Cl)C3=O)ccc1N1C[C@@H](C)O[C@@H](C)C1` [Example 148, 3-(2,6-dichlorophenyl)-7-((4-((2S,6R)-2,6-dimethylmorpholino)-3-((methylamino)methyl)phenyl)amino)-1-methyl-2,3-dihydropyrimido[4,5-d]pyrimidin-4(1H)-one] are at most 10 nM, 100 to 1000 nM and 15 to 50 µL/min/mg.
Turning to `CN(C)Cc1cc(Nc2ncc3c(n2)N(C)CN(c2c(Cl)cccc2Cl)C3=O)ccc1N1CCC(F)(F)CC1` [Example 150, 3-(2,6-dichlorophenyl)-7-((4-(4,4-difluoropiperidin-1-yl)-3-((dimethylamino)methyl)phenyl)amino)-1-methyl-2,3-dihydropyrimido[4,5-d]pyrimidin-4(1H)-one], the 50% inhibitory concentration (IC50) in data set [1] lay in the range of 10 to 100 nM. In data set [2], the EC50 fell in the range of 100 to 1000 nM. For the same compound, the microsomal CLint at 1 μM in data set [3] is at least 50 µL/min/mg.
As for `CN1CCC(c2ccc(Nc3ncc4c(n3)N(C)CN(c3c(Cl)cccc3Cl)C4=O)cc2)CC1` [Example 95, 3-(2,6-dichlorophenyl)-1-methyl-7-((4-(1-methylpiperidin-4-yl)phenyl)amino)-2,3-dihydropyrimido[4,5-d]pyrimidin-4(1H)-one], the 50% inhibitory concentration (IC50) in data set [1] was at most 10 nM. For the same compound, the EC50 in data set [2] lay in the range of 100 to 1000 nM. For the same compound, the microsomal CLint at 1 μM in data set [3] was at most 15 µL/min/mg.
Regarding `C[C@@H]1CN(c2ccc(Nc3ncc4c(n3)N(C)CN(c3c(Cl)cccc3Cl)C4=O)cc2C(C)(C)O)CCN1` [Example 140, (R)-3-(2,6-dichlorophenyl)-7-((3-(2-hydroxypropan-2-yl)-4-(3-methylpiperazin-1-yl)phenyl)amino)-1-methyl-2,3dihydropyrimido [4,5-d]pyrimidin-4(1H)-one], the 50% inhibitory concentration (IC50) in data set [1] lay in the range of 10 to 100 nM. Also, the EC50 in data set [2] was at least 1000 nM. In data set [3], the microsomal CLint at 1 μM is 15 to 50 µL/min/mg.
In the case of `C[C@@H]1CN(c2ccc(Nc3ncc4c(n3)N(C)CN(c3c(Cl)cccc3Cl)C4=O)cc2CN(C)C)C[C@H](C)O1` [Example 151, 3-(2,6-dichlorophenyl)-7-((3-((dimethylamino)methyl)-4-((2S,6R)-2,6-dimethylmorpholino)phenyl)amino)-1-methyl-2,3-dihydropyrimido[4,5-d]pyrimidin-4(1H)-one], in data set [1], the 50% inhibitory concentration (IC50) was at most 10 nM. In data set [2], the EC50 lay in the range of 100 to 1000 nM. Moreover, the microsomal CLint at 1 μM in data set [3] is at least 50 µL/min/mg.
The like results for `CN(C)Cc1cc(Nc2ncc3c(n2)N(C)CN(c2c(Cl)cccc2Cl)C3=O)ccc1N1CCS(=O)(=O)CC1` [Example 149, 3-(2,6-dichlorophenyl)-7-((3-((dimethylamino)methyl)-4-(1,1-dioxidothiomorpholino)phenyl)amino)-1-methyl-2,3-dihydropyrimido[4,5-d]pyrimidin-4(1H)-one] were, in that order, at most 10 nM, 100 to 1000 nM and at most 15 µL/min/mg.
As to `Cc1cccc(Cl)c1N1CN(C)c2nc(Nc3ccc(N4CC5CCC(C4)N5C)c(CO)c3)ncc2C1=O` [Example 114, 3-(2-chloro-6-methylphenyl)-7-((3-(hydroxymethyl)-4-(8-methyl-3,8-diazabicyclo[3.2.1]octan-3-yl)phenyl)amino)-1-methyl-2,3-dihydropyrimido[4,5-d]pyrimidin-4(1H)-one], in data set [1], the IC50 is at most 10 nM. Besides, the EC50 in data set [2] was in the range of 100 to 1000 nM. Further, the microsomal CLint at 1 μM in data set [3] is at most 15 µL/min/mg.
The like results for `CN1CCN(c2ccc(Nc3ncc4c(n3)N(C)CN(c3c(Cl)cccc3Cl)C4=O)cc2CO)CC1` [Example 33, 3-(2,6-dichlorophenyl)-7-((3-(hydroxymethyl)-4-(4-methylpiperazin-1-yl)phenyl)amino)-1-methyl-2,3-dihydropyrimido[4,5-d]pyrimidin-4(1H)-one] were, in that order, at most 10 nM, 100 to 1000 nM and 15 to 50 µL/min/mg.
As for `CN1CN(c2c(Cl)cccc2Cl)C(=O)c2cnc(Nc3ccc(N4CC5CCC(C4)N5C)cc3)nc21` [Example 88, 3-(2,6-dichlorophenyl)-1-methyl-7-((4-(8-methyl-3,8-diazabicyclo[3.2.1]octan-3-yl)phenyl)amino)-2,3-dihydropyrimido[4,5-d]pyrimidin-4(1H)-one], in data set [1], the half-maximal inhibitory concentration (IC50) was at most 10 nM. For the same compound, in data set [2], the EC50 was in the range of 100 to 1000 nM. Further, the microsomal CLint at 1 μM in data set [3] was 15 to 50 µL/min/mg.
In the same order, the values of `C[C@@H]1CN(c2ccc(Nc3ncc4c(n3)N(C)CN(c3c(Cl)cccc3Cl)C4=O)cc2CO)CCN1` [Example 38, (R)-3-(2,6-dichlorophenyl)-7-((3-(hydroxymethyl)-4-(3-methylpiperazin-1-yl)phenyl)amino)-1-methyl-2,3-dihydropyrimido[4,5-d]pyrimidin-4(1H)-one] are at most 10 nM, 100 to 1000 nM and at most 15 µL/min/mg.
Turning to `CN1CCN(c2ccc(Nc3ncc4c(n3)N(C)CN(c3c(Cl)cccc3Cl)C4=O)cc2)CC1` [Example 117, 3-(2,6-dichlorophenyl)-1-methyl-7-((4-(4-methylpiperazin-1-yl)phenyl)amino)-2,3-dihydropyrimido[4,5-d]pyrimidin-4(1H)-one], in data set [1], the IC50 lay in the range of 10 to 100 nM. Further, the EC50 in data set [2] fell in the range of 100 to 1000 nM. The microsomal CLint at 1 μM in data set [3] was 15 to 50 µL/min/mg.
For the compound `CNCc1cc(Nc2ncc3c(n2)N(C)CN(c2c(Cl)cccc2Cl)C3=O)ccc1N1CCC(F)(F)CC1` [Example 147, 3-(2,6-dichlorophenyl)-7-((4-(4,4-difluoropiperidin-1-yl)-3-((methylamino)methyl)phenyl)amino)-1-methyl-2,3-dihydropyrimido[4,5-d]pyrimidin-4(1H)-one], the IC50 in data set [1] is at most 10 nM. The EC50 in data set [2] lay within 100 to 1000 nM. Further, in data set [3], the microsomal CLint at 1 μM is at most 15 µL/min/mg.
The like results for `CN(C)CC(=O)N1CCN(c2ccc(Nc3ncc4c(n3)N(C)CN(c3c(Cl)cccc3Cl)C4=O)cc2)CC1` [Example 123, 3-(2,6-dichlorophenyl)-7-((4-(4-(2-(dimethylamino)acetyl)piperazin-1-yl)phenyl)amino)-1-methyl-2,3-dihydropyrimido[4,5-d]pyrimidin-4(1H)-one] were, in that order, at most 10 nM, 100 to 1000 nM and at least 50 µL/min/mg.
`CC(C)N1CCN(c2ccc(Nc3ncc4c(n3)N(C)CN(c3c(F)cccc3Cl)C4=O)cc2CO)CC1` [Example 89, 3-(2-chloro-6-fluorophenyl)-7-((3-(hydroxymethyl)-4-(4-isopropylpiperazin-1-yl)phenyl)amino)-1-methyl-2,3-dihydropyrimido[4,5-d]pyrimidin-4(1H)-one]: the IC50 in data set [1] is at most 10 nM. The EC50 in data set [2] was 100 to 1000 nM. In data set [3], the microsomal CLint at 1 μM is at most 15 µL/min/mg.
